Marks after values point to notes of the source that are not given here.
Key:
[1] = tested on: gt 1a/2a-Rluc virus; assay: HCV Core Cellomics ArrayScan assay (HCS); conditions: 96 h, Huh-7.5 cells, HCV Core Cellomics readout, average ± SD of at least three experiments
Method: For compound library screening, infections were performed in 384-well plates by pre-mixing 400 ffu of gt 1a/2a-Rluc virus with 1×10^4 Huh-7.5 cells and dispensing 50 µl on top of 150 nl of compound in DMSO (final 0.3% DMSO) followed by incubation at 37°C. Renilla luciferase activity, reflecting the degree of virus replication, was measured 96 h after infection using the EnduRen reagent (Promega). […] Maximum activity (100% of control) and background were derived from control wells containing DMSO alone or from uninfected wells, respectively. The individual signals in each of the compound test wells were then divided by the averaged control values (wells lacking inhibitor), after background subtraction, and multiplied by 100% to determine percent activity. The corresponding % inhibition values were then calculated by subtracting this value from 100. Dose-response assays were performed in triplicate and average EC50 values (reflecting the concentration at which 50% inhibition of virus replication was achieved) were calculated using XLfit for Excel (ID Business Solutions, Burlington, MA). Cytotoxicity studies were performed in parallel using CellTiter-Glo (Promega). […] The total number of cells per well (Hoechst staining) and infected cells per well (HCV Core) was measured using a Cellomics ArrayScan HCS Reader (Thermo Scientific) and EC50 values calculated as described above. […]

[2] = tested on: gt 1a/2a-Rluc virus; assay: Multi-cycle virus growth assay, Renilla luciferase readout (HTS); conditions: for inhibition of luciferase expression: MOI 0.05, EI 1 µM added 16 h post-entry, LY411575 0.5 µM
Method: For compound library screening, infections were performed in 384-well plates by pre-mixing 400 ffu of gt 1a/2a-Rluc virus with 1×10^4 Huh-7.5 cells and dispensing 50 µl on top of 150 nl of compound in DMSO (final 0.3% DMSO) followed by incubation at 37°C. Renilla luciferase activity, reflecting the degree of virus replication, was measured 96 h after infection using the EnduRen reagent (Promega). […] Maximum activity (100% of control) and background were derived from control wells containing DMSO alone or from uninfected wells, respectively. The individual signals in each of the compound test wells were then divided by the averaged control values (wells lacking inhibitor), after background subtraction, and multiplied by 100% to determine percent activity. The corresponding % inhibition values were then calculated by subtracting this value from 100. Dose-response assays were performed in triplicate and average EC50 values (reflecting the concentration at which 50% inhibition of virus replication was achieved) were calculated using XLfit for Excel (ID Business Solutions, Burlington, MA). Cytotoxicity studies were performed in parallel using CellTiter-Glo (Promega). For high-content screening, virus and cells were prepared as above and 50 ul was dispensed into black 384 well optics plates (Thermo Scientific). At 96 h post-infection, cells were fixed for 20 min by adding 17 ul of 16% paraformaldehyde (Electron Microscopy Sciences) to achieve 4% final fixative. Cells were washed and permeabilized twice for 10 min each with PBS containing 1% TX-100 and 0.05% Tween-20 (wash buffer) and blocked for 15 min with PBS with 2% BSA (blocking buffer). […] The total number of cells per well (Hoechst staining) and infected cells per well (HCV Core) was measured using a Cellomics ArrayScan HCS Reader (Thermo Scientific) and EC50 values calculated as described above.

[3] = tested on: gt 1a/2a-Rluc virus; assay: Virus foci expansion by HCV Core immunofluorescence; format: cell-based, Hepatitis C virus; conditions: EI 1 µM added 16 h post-entry, LY411575 0.5 µM
[4] = tested on: gt 1a/2a-Rluc virus; assay: HCVcc resistance selection; conditions: virus cultured at 5× EC50 up to 10 weeks or until resistance observed
Method: The gt 1a/2a-Rluc virus was used to infect Huh-7.5 cells and inhibitor was added 12 h post-infection at 5× EC50. Infection was allowed to progress for 96 h and cells were split 1∶1 with naïve Huh-7.5 cells in the presence of inhibitor and cultured for another 96 h. Viral supernatants were passed onto naïve Huh-7.5 cells in the presence of inhibitor and HCVcc replication in the presence of inhibitor was monitored by determining the spread of virus infection, using immunofluorescence (HCV Core), at each passage. Generally, virus stocks were prepared when HCVcc was ≥10-fold resistant relative to wild-type parental virus. The HCV genome was amplified by RT-PCR (Invitrogen), cloned and amino acid changes that arose during inhibitor selection were identified by analysis of the DNA sequence compared to the parent and control passages in the absence of inhibitor.

[5] = tested on: gt 1a/2a-Rluc virus; assay: HCVcc infectious virus release assay; conditions: 2× EC90 of compound, 48 h pi
Method: Cells were incubated at 37°C for 48 h and supernatants were collected. Supernatants were clarified by centrifugation, diluted 20 fold and used to infect naïve Huh-7.5 cells in 96 well plates. Renilla luciferase expression was measured in both producer cells and target cells 48 h post-infection as described above.

Compound | Cellomics (EC50) [1] | Luciferase (EC50) ([2]; 96 h, Huh-7.5 cells, Renilla luciferase readout, average ± SD of at least three experiments) | size of HCV Core-positive virus foci ([3]; 48 h pi, MOI 0.05, Huh-7.5) | inhibition of expansion of virus foci ([3]; 96 h pi, MOI 0.05) | Fold Resistance [4] | effect on Renilla luciferase expression in producer and target cells [5] | EC50 ([1]; read-out: Cellomics (EC50)) | % inhibition in a 96 h assay ([2]; 384 well, 400 ffu of virus/well and 4,000 Huh7.5 cells (MOI = 0.1), 96 h) | inhibition of luciferase expression ([2]; 48 h pi) | inhibition of luciferase expression ([2]; 72 h pi) | inhibition of luciferase expression ([2]; 96 h pi) | difference in potency at 96 h vs 48 h pi (multi- vs single-cycle) ([2]; EC50 at 48 h vs 96 h pi) | EC50 ([2]; read-out: Luciferase (EC50), 96 h, Huh-7.5 cells, Renilla luciferase readout, average ± SD of at least three experiments)
IFNα | 0.17±0.08 ^b International units per ml | 0.20±0.04 ^b International units per ml |  |  |  |  |  |  |  |  |  |  | 
C[C@H](NC(=O)[C@@H](O)c1cc(F)cc(F)c1)C(=O)N[C@@H]1C(=O)N(C)c2ccccc2-c2ccccc21 [LY411575] |  |  | 2.0±0.6 mean cells/foci | > 20 fold | did not select for resistance through ten weeks of culture and None | only affected Renilla luciferase expression in target cells | 11 ± 4.1 nM | > 90% | < 20% | > 80% | > 90% | > 200 fold | 10 ± 3.3 nM

— article PMC3412796, “High-Throughput Screening and Rapid Inhibitor Triage Using an Infectious Chimeric Hepatitis C Virus” (PLoS ONE, 2012)
